Assays:
[1] = Inhibition of cell growth in mouse 32D cells transfected with FLT3 ITD F691L mutant incubated for 2 days; format: functional; conditions: 48 h, time 2 day
[2] = Inhibition of cell growth in mouse 32D cells transfected with FLT3 ITD mutant incubated for 2 days; format: functional; conditions: 48 h, time 2 day

SMILES: CCCNc1nc(Nc2ccc(C#N)cc2)ncc1C#CCCCNC(=O)[C@H](C)N(C)C(=O)/C=C/CN(C)C [FF-10101]
- GI50 [1]: 10 nM
- GI50 [2]: 1.9 nM

Source: ChEMBL document CHEMBL5500390, “Overcoming Secondary Mutations of Type II Kinase Inhibitors” (J Med Chem, 2024)
